Our source for the IC50 values is patent US12516044B2, “Heterocyclic compounds as immunomodulators” (Incyte Corporation, priority 2015, dated 2026).

Molecules are shown by their SMILES.

The target of the test is T1, PD-1/PD-L1 protein/protein interaction (Homo sapiens, UniProt Q9NZQ7).
T1 construct: Recombinant human PD-L1 protein (19-238) with a His-tag at the C-terminus; purchased AcroBiosystems PD1-H5229 (PD-L1-His); PD1-H5257 (PD-1-Fc)
The test is described as follows: PD-1/PD-L1 Homogeneous Time-Resolved Fluorescence (HTRF) Binding Assay. Conditions: recombinant human PD-L1 (19-238) His-tag and human PD-1 (25-167) Fc tag; 25° C., PBS pH 7.4. Here is the method: Example A. PD-1/PD-L1 Homogeneous Time-Resolved Fluorescence (HTRF) Binding Assay
The assays were conducted in a standard black 384-well polystyrene plate with a final volume of 20 μL. Inhibitors were first serially diluted in DMSO and then added to the plate wells before the addition of other reaction components. The final concentration of DMSO in the assay was 1%. The assays were carried out at 25° C. in the PBS buffer (pH 7.4) with 0.05% Tween-20 and 0.1% BSA. Recombinant human PD-L1 protein (19-238) with a His-tag at the C-terminus was purchased from AcroBiosystems (PD1-H5229). Recombinant human PD-1 protein (25-167) with Fc tag at the C-terminus was also purchased from AcroBiosystems (PD1-H5257). PD-L1 and PD-1 proteins were diluted in the assay buffer and 10 μL was added to the plate well. Plates were centrifuged and proteins were preincubated with inhibitors for 40 minutes. The incubation was followed by the addition of […] of HTRF detection buffer supplemented with Europium cryptate-labeled anti-human IgG (PerkinElmer-AD0212) specific for Fc and anti-His antibody conjugated to SureLight®-Allophycocyanin (APC, PerkinElmer-AD0059H). After centrifugation, the plate was incubated at 25° C. for 60 min. before reading on a PHERAstar FS plate reader (665 nm/620 nm ratio). Final concentrations in the assay were […] PD1, 10 nM PD-L1, 1 nM europium anti-human IgG and 20 nM anti-His-Allophycocyanin. IC50 determination was performed by fitting the curve of percent control activity versus the log of the inhibitor concentration using the GraphPad Prism 5.0 software.
In general terms: In TR-FRET formats the signal depends on donor and acceptor labels being close together.

T1 sequence (Q9NZQ7 19-238): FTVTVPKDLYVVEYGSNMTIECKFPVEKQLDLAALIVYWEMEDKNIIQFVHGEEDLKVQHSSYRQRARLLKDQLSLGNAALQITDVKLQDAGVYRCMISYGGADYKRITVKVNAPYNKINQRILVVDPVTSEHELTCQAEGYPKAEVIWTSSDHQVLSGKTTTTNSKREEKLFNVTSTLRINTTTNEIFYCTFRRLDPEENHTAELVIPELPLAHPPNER

In the case of `Cc1c(NC(=O)c2ccc(CN3CCCC[C@H]3C(=O)O)cn2)cccc1-c1ccccc1` [Example 1, (2S)-1-[(6-{[(2-methylbiphenyl-3-yl)amino]carbonyl}pyridin-3-yl)methyl]piperidine-2-carboxylic Acid], the IC50 – broadly, the concentration that inhibits the measured activity by half – fell in the range of 10 to 100 nM.
Next, `Cc1c(NC(=O)c2ncc(CN3CCCC[C@H]3C(=O)O)cc2Cl)cccc1-c1ccccc1` [Example 15, (2S)-1-[(5-chloro-6-{[(2-methylbiphenyl-3-yl)amino]carbonyl}pyridin-3-yl)methyl]piperidine-2-carboxylic Acid]: 100 to 1000 nM; `N#Cc1c(NC(=O)c2ccc(CNCCO)cn2)cccc1C1=COCCC1` [Example 44, N-[2-cyano-3-(3,4-dihydro-2H-pyran-5-yl)phenyl]-5-{[(2-hydroxyethyl)amino]methyl}pyridine-2-carboxamide]: 10 to 100 nM.
As to `Cc1c(NC(=O)c2cc(C#N)ccn2)cccc1-c1ccccc1` [Example 25, 4-cyano-N-(2-methylbiphenyl-3-yl)pyridine-2-carboxamide], the IC50 lay in the range of 10 to 100 nM.
Next, `Cc1cnc(C(=O)Nc2cccc(-c3ccccc3)c2C)cc1CN1CCCC[C@H]1C(=O)O` [Example 36, (2S)-1-[(5-methyl-2-{[(2-methylbiphenyl-3-yl)amino]carbonyl}pyridin-4-yl)methyl]piperidine-2-carboxylic Acid]: 10 to 100 nM.
Turning to `Cc1c(NC(=O)c2ncc(CNCCO)cn2)cccc1-c1ccccc1` [Example 6, 5-{[(2-hydroxyethyl)amino]methyl}-N-(2-methylbiphenyl-3-yl)pyrimidine-2-carboxamide], the IC50 was 10 to 100 nM.
The value for `CC(C)(C)OC(=O)N1CCC=C(c2cccc(NC(=O)c3ccc(CNCCO)cn3)c2C#N)C1` [Example 40, tert-butyl 5-(2-cyano-3-{[(5-{[(2-hydroxyethyl)amino]methyl}pyridin-2-yl)carbonyl]amino}phenyl)-3,6-dihydropyridine-1(2H)-carboxylate] was 100 to 1000 nM; that for `N#Cc1c(NC(=O)c2ccc(CNCCO)cn2)cccc1-c1ccc2c(c1)OCCO2` [Example 10, N-(2-cyano-3-(2,3-dihydrobenzo[b][1,4]dioxin-6-yl)phenyl)-5-((2-hydroxyethylamino)methyl)picolinamide] was not above 10 nM.
Next, `Cc1c(NC(=O)c2ncccn2)cccc1-c1ccccc1` [Example 28, N-(2-methylbiphenyl-3-yl)pyrimidine-2-carboxamide]: 100 to 1000 nM; `Cc1c(NC(=O)c2ncc(CNCCO)cc2F)cccc1-c1ccccc1` [Example 17, 3-fluoro-5-{[(2-hydroxyethyl)amino]methyl}-N-(2-methylbiphenyl-3-yl)pyridine-2-carboxamide]: 10 to 100 nM.
Next, `COc1cc(C(=O)Nc2cccc(-c3ccccc3)c2C)ncc1CNCCO` [Example 35, 5-{[(2-hydroxyethyl)amino]methyl}-4-methoxy-N-(2-methylbiphenyl-3-yl)pyridine-2-carboxamide]: not above 10 nM; `Cc1c(NC(=O)c2cc(-c3ccncc3)c(CNCCO)cn2)cccc1-c1ccccc1` [Example 31, 5-{[(2-hydroxyethyl)amino]methyl}-N-(2-methylbiphenyl-3-yl)-4,4′-bipyridine-2-carboxamide]: 10 to 100 nM.
For the compound `Cn1ncc2c(-c3cccc(NC(=O)c4ccc(CNCCO)cn4)c3C#N)cccc21` [Example 49, N-[2-cyano-3-(1-methyl-1H-indazol-4-yl)phenyl]-5-{[(2-hydroxyethyl)amino]methyl}pyridine-2-carboxamide], the IC50 is not above 10 nM.
The value for `Cc1cc(CN2CCCC[C@H]2C(=O)O)cnc1C(=O)Nc1cccc(-c2ccccc2)c1C` [Example 3, (2S)-1-[(5-methyl-6-{[(2-methylbiphenyl-3-yl)amino]carbonyl}pyridin-3-yl)methyl]piperidine-2-carboxylic Acid] was 100 to 1000 nM; that for `Cc1cc(CNCCO)cnc1C(=O)Nc1cccc(-c2ccccc2)c1C` [Example 4, 5-{[(2-hydroxyethyl)amino]methyl}-3-methyl-N-(2-methylbiphenyl-3-yl)pyridine-2-carboxamide] was 10 to 100 nM; that for `Cn1cc2ccc(-c3cccc(NC(=O)c4ccc(CNCCO)cn4)c3C#N)cc2n1` [Example 48, N-[2-cyano-3-(2-methyl-2H-indazol-6-yl)phenyl]-5-{[(2-hydroxyethyl)amino]methyl}pyridine-2-carboxamide] was 10 to 100 nM.
Next, `Cc1c(NC(=O)c2cc(CNCCO)ccn2)cccc1-c1ccccc1` [Example 23, 4-{[(2-hydroxyethyl)amino]methyl}-N-(2-methylbiphenyl-3-yl)pyridine-2-carboxamide]: 10 to 100 nM; `N#Cc1c(NC(=O)c2ccc(CN3CCCC[C@H]3C(=O)O)cn2)cccc1-c1ccccc1` [Example 7, (2S)-1-[(6-{[(2-cyanobiphenyl-3-yl)amino]carbonyl}pyridin-3-yl)methyl]piperidine-2-carboxylic Acid]: 10 to 100 nM.
The value for `Cc1c(NC(=O)c2ccc(CNCCO)cn2)cccc1-c1ccccc1` [Example 2, 5-{[(2-hydroxyethyl)amino]methyl}-N-(2-methylbiphenyl-3-yl)pyridine-2-carboxamide] was 10 to 100 nM; that for `Cc1c(NC(=O)c2cnccn2)cccc1-c1ccccc1` [Example 26, N-(2-methylbiphenyl-3-yl)pyrazine-2-carboxamide] was 10 to 100 nM.
On to `N#Cc1c(NC(=O)c2ccc(CNCCO)cn2)cccc1-c1ccccc1` [Example 8, N-(2-cyanobiphenyl-3-yl)-5-{[(2-hydroxyethyl)amino]methyl}pyridine-2-carboxamide], for which the IC50 is not above 10 nM.
The value for `Cc1c(NC(=O)c2cccnn2)cccc1-c1ccccc1` [Example 29, N-(2-methylbiphenyl-3-yl)pyridazine-3-carboxamide] was 100 to 1000 nM; that for `Cc1cnc(C(=O)Nc2cccc(-c3ccccc3)c2C)cc1CNCCO` [Example 37, 4-{[(2-hydroxyethyl)amino]methyl}-5-methyl-N-(2-methylbiphenyl-3-yl)pyridine-2-carboxamide] was 10 to 100 nM; that for `CN1CCOc2cc(-c3cccc(NC(=O)c4ccc(CNCCO)cn4)c3C#N)ccc21` [Example 46, N-[2-cyano-3-(4-methyl-3,4-dihydro-2H-1,4-benzoxazin-7-yl)phenyl]-5-{[(2-hydroxyethyl)amino]methyl}pyridine-2-carboxamide] was 100 to 1000 nM.
Take `Cc1c(NC(=O)c2cc(OCc3cccnc3)c(CNCCO)cn2)cccc1-c1ccccc1` [Example 19, 5-{[(2-hydroxyethyl)amino]methyl}-N-(2-methylbiphenyl-3-yl)-4-(pyridin-3-ylmethoxy)pyridine-2-carboxamide]: the IC50 lay within 10 to 100 nM.
As to `N#Cc1c(NC(=O)c2ccc(CNCCO)cn2)cccc1C1CCCCC1` [Example 41, N-(2-cyano-3-cyclohexylphenyl)-5-{[(2-hydroxyethyl)amino]methyl}pyridine-2-carboxamide], the IC50 lay in the range of 10 to 100 nM.
For `Cc1c(NC(=O)c2ccncn2)cccc1-c1ccccc1` [Example 27, N-(2-methylbiphenyl-3-yl)pyrimidine-4-carboxamide], the IC50 was in the range of 10 to 100 nM.
Consider `Cc1c(NC(=O)c2ccc(CN3CCCC[C@H]3C(=O)O)cn2)ccnc1-c1ccccc1` [Example 42, (S)-1-((6-(3-methyl-2-phenylpyridin-4-ylcarbamoyl)pyridin-3-yl)methyl)piperidine-2-carboxylic Acid], for which the IC50 was more than 1000 nM.
Next, `N#Cc1c(NC(=O)c2ccc(CNCCO)cn2)cccc1C1=CCCCC1` [Example 38, N-(2-cyano-3-cyclohex-1-en-1-ylphenyl)-5-{[(2-hydroxyethyl)amino]methyl} pyridine-2-carboxamide]: not above 10 nM.
For the compound `Cc1c(NC(=O)c2cc(OCc3cccnc3)ncn2)cccc1-c1ccccc1` [Example 24, N-(2-methylbiphenyl-3-yl)-6-(pyridin-3-ylmethoxy)pyrimidine-4-carboxamide], the IC50 was 100 to 1000 nM.
Consider `Cc1c(NC(=O)c2cc(OCc3cccc(C#N)c3)c(CNCCO)cn2)cccc1-c1ccccc1` [Example 18, 4-[(3-cyanobenzyl)oxy]-5-{[(2-hydroxyethyl)amino]methyl}-N-(2-methylbiphenyl-3-yl)pyridine-2-carboxamide], for which the half-inhibitory concentration (IC50) lay within 10 to 100 nM.
Next, `N#Cc1c(NC(=O)c2ccc(CNCCO)cn2)cccc1N1CCCCC1` [Example 39, N-(2-cyano-3-piperidin-1-ylphenyl)-5-{[(2-hydroxyethyl)amino]methyl}pyridine-2-carboxamide]: more than 1000 nM; `Cc1c(NC(=O)c2cnc(CNCCO)cn2)cccc1-c1ccccc1` [Example 11, 5-{[(2-hydroxyethyl)amino]methyl}-N-(2-methylbiphenyl-3-yl)pyrazine-2-carboxamide]: 10 to 100 nM.
Take `Cc1cc(C(=O)Nc2cccc(-c3ccccc3)c2C)ncc1CNCCO` [Example 33, 5-{[(2-hydroxyethyl)amino]methyl}-4-methyl-N-(2-methylbiphenyl-3-yl)pyridine-2-carboxamide]: the IC50 is not above 10 nM.
